Format in all cases: cell-based, Aspergillus fumigatus
The test system of experiment [1] is ΔAf-sidA, OMO-deficient A. fumigatus strain. Nature of the experiment: Radial growth of siderophore-negative ΔAf-sidA on Aspergillus minimal medium plates. An excerpt:
As is described in the appended Examples below, to elucidate the function of Af-sidA, a deletion mutant for this gene was constructed. In the generated mutant allele of ΔAf-sidA, the entire coding region, 279 bp downstream and 137 bp upstream region of the gene was replaced by the hygromycine resistance (hph) marker. […] Consistent with reductive iron assimilation being responsible for the residual growth of ΔAf-sidA, the use of copper-deficient media or the addition of the copper-specific chelator bathocuproine disulfonic acid in a concentration of 30 μM decreased the radial growth rate of ΔAf-sidA 46% and 25% compared to the wt. The growth of ΔAf-sidA was increased to 84% and 99% by supplementation with 1.5 mM FeSO4 and 10 μM ferricrocin, respectively.
(§1) FIG. 3: A. Growth phenotypes of wild type and mutant strains. […] 10^4 conidia of the respective strain were point-inoculated on AMM plates containing the respective iron source, and incubated for 48 h at 37° C. Blood agar was AMM containing 5% sheep blood.

The test system of experiment [2] is ΔsidACEA17. The experiment is described as follows: Conidia production of ΔsidACEA17. The following applies: without supplement 99% decrease. As to the method:
as §1
(§2) To elucidate the role of sidA a gene deletion mutant from CEA17 by replacement with pyrG was constructed (Weidner (1998), loc. cit.).

In experiment [3] the test system is ΔsidD. The experiment is described as follows: Radial growth of ΔsidD in the presence of BPS. The conditions noted are these: iron depleted conditions, BPS 200 μM, radial growth at 48 h. As to the method:
as §1
(§3) FIG. 12: Growth phenotypes of wild type and Δat1, ΔsidD and Δat2 mutant strains. Growth assays were performed during iron replete conditions (+Fe, 10 μM FeSO4), iron depleted conditions (−Fe), iron depleted conditions in the presence of bathophenantroline-disulfonate (BPS, 200 μM) and on blood agar (blood) as described in FIG. 3, radial growth was scored at 48 h.
(§4) Bathophenantroline-disulfonic acid is an inhibitor of the reductive iron assimilatory system and the iron contained in blood agar cannot be readily used by the reductive iron assimilatory system.

The test system of experiment [4] is Δat1. The experiment is described as follows: Radial growth of Δat1 in the presence of BPS. The conditions noted are these: iron depleted conditions, BPS 200 μM, radial growth at 48 h. The procedure: as §1, §3, §4
Experiment [5] has as its system Δat2. The experiment is described as follows: Radial growth of Δat2 in the presence of BPS. The conditions noted are these: iron depleted conditions, BPS 200 μM, radial growth at 48 h. As to the method: as §1, §3, §4
The subject of experiment [6] is ΔsidACEA17. The experiment is described as follows: Growth sensitivity of ΔsidACEA17 to ferrous iron chelator. The procedure:
as §1, §2

The test system of experiment [7] is ΔsidA/ΔftrACEA17. The experiment is described as follows: Growth of double mutant ΔsidA/ΔftrACEA17 on different iron sources. The conditions noted are these: for growth promotion of ΔsidA/ΔftrACEA17: high amounts; for growth of ΔsidA/ΔftrACEA17 on host iron compound as sole iron source: 10 μM as the sole iron source. The procedure:
10^4 conidia of the respective strain were point-inoculated on AMM plates containing the respective iron source, and incubated for 48 h at 37° C. Blood agar was AMM containing 5% sheep blood.
To analyze the potential role of FtrA in iron uptake of A. fumigatus we deleted the encoding gene in ΔsidACEA17 by replacement with the hygromycin resistance (hph) marker (Punt (1987), loc. cit.).

Results on 9 molecules are retold here after US20080152641A1, “Inhibitors of Siderophore Biosynthesis in Fungi” (Autria Wirtschaftsservice, priority 2004, published 2008).

Square brackets hold non-standard residues; d marks the D form. Peptide text beside a SMILES is read from it. Orn(N5-OH,N5-Ac) = CC(=O)N(O)CCC[C@H](N)C(=O)O

For the molecule `O=S(=O)([O-])[O-].[Fe+2]` [FeSO4], the “growth of ΔAf-sidA compared to the wt” value in experiment [1] (supplementation with 1.5 mM) was determined as 84%. The “conidia production of ΔsidACEA17” value in experiment [2] (supplementation with 1.5 mM) is given as 35%.

Turning to `Cc1cc(-c2ccc(S(=O)(=O)O)cc2)c2ccc3c(-c4ccc(S(=O)(=O)O)cc4)cc(C)nc3c2n1` [bathocuproine disulfonic acid], in experiment [1] (addition of chelator at 30 μM), the “radial growth rate of ΔAf-sidA compared to the wt” value is listed as 25%. On to `O=S(=O)(O)c1ccc(-c2ccnc3c2ccc2c(-c4ccc(S(=O)(=O)O)cc4)ccnc23)cc1` [bathophenantroline disulfonate, bathophenanthroline disulfonic acid], for which the “growth rate of ΔsidD” value in experiment [3] is on record as “decreased growth rate”. Moreover, the “growth rate of Δat1” value in experiment [4] is given as “decreased growth rate”. Further, the “growth of siderophore negative A fumigatus (FIG. 7)” value in experiment [1] is recorded as “Growth inhibition”. Also, the “growth rate of Δat2” value in experiment [5] was “wild type growth rate”. In addition, the “sensitivity of ΔsidACEA17 to chelator” value in experiment [6] is “increased sensitivity”. Regarding `[Cl][Fe]([Cl])[Cl]` [ferric iron], the “growth promotion of ΔsidA/ΔftrACEA17” value in experiment [7] is listed as “not”.

On to `CC(=O)N([O-])CCC[C@@H]1NC(=O)CNC(=O)[C@H](CO)NC(=O)CNC(=O)[C@H](CCCN([O-])C(C)=O)NC(=O)[C@H](CCCN([O-])C(C)=O)NC1=O.[Fe+3]` [ferricrocin] (cyclo(GSG[Orn(N5-OH,N5-Ac)][Orn(N5-OH,N5-Ac)][Orn(N5-OH,N5-Ac)])), for which the “antagonism of growth inhibition by BPS and blood (FIG. 7)” value in experiment [1] is “antagonist action”. For the same molecule, the “growth of ΔAf-sidA compared to the wt” value in experiment [1] (supplementation with 10 μM) was 99%. Besides, the “conidia production of ΔsidACEA17” value in experiment [2] (supplementation with 10 μM) was 125%. The “growth of ΔsidA/ΔftrACEA17 with siderophore in growth medium” value in experiment [7] was “unable to grow unless the growth medium contained ferricrocin”.

With `[Fe+2]` [ferrous iron], in experiment [7], the “growth promotion of ΔsidA/ΔftrACEA17” value is recorded as “slight growth promotion”. hemin: in experiment [7], the “growth of ΔsidA/ΔftrACEA17 on host iron compound as sole iron source” value is recorded as “failed to grow”. Same read-out and setting: in the case of “holotransferrin: host iron compound tested as sole iron source” it was “failed to grow”.

Regarding iron chloride, in experiment [2] (supplementation with 1.5 mM), the “conidia production of ΔsidACEA17” value turned out to be 35%.
